# Results: patent US20160143955A1, “METHOD FOR ISOLATING STROMAL VASCULAR FRACTION” (AGENCY FOR SCIENCE, TECHNOLOGY AND RESEARCH, priority 2013, published 2016)
# Test system: adipose-derived stem cells recovered from fat tissue
# Assay: Yield of adipose-derived stem cells (ASCs) after seven days of growth, compared to the collagenase-based method
# Assay type: cell-based
# Conditions: mince 2.5 mins, incubate with agent at 37° C. for 1 hour; ASCs after seven days of growth vs collagenase-based method
# Protocol: Fat tissue (adipose tissue) obtained as lipoaspirate or resected via surgeries are to be obtained prior conducting any of the methods as described herein. To ensure optimum cell viability, immediate isolation of stromal vascular fraction on the day the sample is obtained is recommended. However, the methods as described herein may be performed optimally within 24 hours of sample being obtained. If the methods of the present disclosure cannot be performed immediately upon harvest of sample or within 72 hours of the sample being obtained, the sample was stored at 4° C. In case of enzymatic digestion, the sample is brought to room temperature before proceeding to the isolation procedure.
# Upon obtaining the sample as lipoaspirate, to remove debris, the fat tissue was washed with equal amount of buffer (such as phosphate buffered saline (PBS) or Hank's balanced salt solution (HBSS)). For example, for 50 cc or 50 gram volume of lipoaspirate, 50 ml of buffer was used. Washed sample was allowed to settle for a couple of minutes and fluid from the bottom was aspirated to leave fat layer in the top. Washing steps were repeated two times. Collected fat layer was divided into the different methods as described below.
# i) Add an equal volume of collagenase solution (ml per gram or cc of fat pads) into one sterile vial and warm to 37° C. Typically, collagenase solution is composed of 2.5 μg/ml collagenase type I, 1% (wt/vol) Bovine Serum Albumin (BSA), 50 μg/ml D-glucose and 200 nM adenosine in buffer;
# i) Place washed fat tissue into appropriate tubes. Add equal volume of HBSS solution. Usually 10 ml of fat is used for each variable for replicate treatment/plating. Resected fat is favorable for consistency of cell yield, but manually harvested lipoaspirates are acceptable though additional optimization work described below is recommended;
# When homogenizer is to be used, mildly homogenize fat tissue samples at the lowest level setting for 1 min. As would be apparent to the skilled person in the art, different homogenizers would give very different results. […] Optimization for different type of fat tissues must be conducted to obtain optimized parameters and lengths of homogenizing time;
# vi) Centrifuge samples at 450 g (about 1800 RPM) for 5 min to pellet dissociated stromal vascular fraction cells. […] Discard the top layer of floating mature adipocytes;
# xii) Re-suspend pellet in buffer (PBS or HBSS; 1 ml per 100 cc original tissue). Sample out 10 μl and count cell number in 1:1 mixture of trypan blue by hemocytometer or automated cell counter.
# xv) Plate into appropriate dishes and incubate culture plates in 37° C., 5% CO2 incubator. […]
# The isolated stromal vascular fraction cells in the methods described above were analyzed for their qualities and yield of adipose-derived stem cells. […]
row,Compound,Yield (percentage yield of adipose-derived stem cells recovered) [%]
1,Triton-X,0
2,"CNC[C@H](O)c1ccc(O)c(O)c1 [Epinephrine, epinephrine]",>85
3,"CC(C)NCC(O)c1ccc(O)c(O)c1 (stereo not shown) [Isoprenaline, isoprenaline]",>70
4,Sodium deoxycholate [Sodium deoxycholate (SOC)],0
